Patent US20260256792A1, “TREATMENT OF CHRONIC SPONTANEOUS URTICARIA BY ADMINISTERING (R)-2-[3-[4-AMINO-3-(2-FLUORO-4-PHENOXY-PHENYL)PYRAZOLO[3,4-D]PYRIMIDIN-1-YL]PIPERIDINE-1-CARBONYL]-4-METHYL-4-[4-(OXETAN-3-YL)PIPERAZIN-1-YL]PENT-2-ENENITRILE” (priority 2023, published 2026)

Tested on: moderate-to-severe chronic spontaneous urticaria (CSU)
Assay: Phase 2 CSU study: itch severity score over 7 days (ISS7)
Type: in vivo, human
Details: 400 mg BID; for Change from Baseline in ISS7 at Week 12, LS Mean / Change from Baseline in ISS7 at Week 12, LS Mean Diff vs. placebo / Change from Baseline in ISS7 at Week 12, Mean: Omalizumab-naïve population
Excerpt: The study comprises a 12 week, randomized, double-blind, placebo-controlled, multi-center, dose-ranging efficacy and safety phase, followed by a 40 week open label extension (OLE) phase (see FIG. 1). The study consists of three phases and an optional OLE phase. […] Clinically, CSU is characterized by the spontaneous and recurrent appearance of pruritic hives. The proposed primary endpoints were the UAS7 at Week 12 in EU and EU reference countries and the ISS7 in the US. Regardless of where a participant was from, all assessments were the same. The UAS7 score is a composite score containing both the HSS7 and the ISS7. This allowed a global assessment of the two key components of urticaria: hives and itch. […] The UAS is a validated PRO measure. […] The daily UAS scores range from 0 to 6 point/day. […] Patients were to complete the UAS using the e-diary. […] The following secondary endpoints were to be analyzed using the same approach as for the primary endpoint: • Change from baseline in UAS7 at Week 4 • Change from baseline in UAS7 at Week 12 (for US and US reference countries) • Change from baseline in ISS7 at Week 12 (except US and US reference countries) • Change from baseline in HSS7 at Week 12

[1] = Baseline Eosinophils (10^9/L) <0.150
[2] = Baseline Eosinophils (10^9/L) <0.165 (Median)
[3] = Baseline Eosinophils (10^9/L) <0.3
[4] = Baseline Eosinophils (10^9/L) ≥0.150
[5] = Baseline Eosinophils (10^9/L) ≥0.165 (Median)
[6] = Baseline Eosinophils (10^9/L) ≥0.3
[7] = Baseline H1-antihistamines dose 1-fold
[8] = Baseline H1-antihistamines dose 2 to 4-fold standard dose
[9] = Baseline Total IgE (IU/mL) <100
[10] = Baseline Total IgE (IU/mL) <300
[11] = Baseline Total IgE (IU/mL) ≥100
[12] = Baseline Total IgE (IU/mL) ≥300
[13] = Duration of disease (years) 2-10
[14] = Duration of disease (years) >10

With `CC(C)(C=C(C#N)C(=O)N1CCC[C@@H](n2nc(-c3ccc(Oc4ccccc4)cc3F)c3c(N)ncnc32)C1)N1CCN(C2COC2)CC1` [rilzabrutinib, (R)-2-[3-[4-amino-3-(2-fluoro-4-phenoxy-phenyl)pyrazolo[3,4-d]pyrimidin-1-yl]piperidine-1-carbonyl]-4-methyl-4-[4-(oxetan-3-yl)piperazin-1-yl]pent-2-enenitrile] the “Change from Baseline in ISS7 at Week 12, LS Mean” value (Age group (years) <44 (Median)) was −7.05, the “Change from Baseline in ISS7 at Week 12, LS Mean Diff vs. placebo” value (Age group (years) <44 (Median)) was −2.58 and the “Change from Baseline in ISS7 at Week 12, Mean” value (Age group (years) <44 (Median)) was −5.97. For the same compound, the “Change from Baseline in ISS7 at Week 12, LS Mean” value (Age group (years) <65) was −7.37, the “Change from Baseline in ISS7 at Week 12, LS Mean Diff vs. placebo” value (Age group (years) <65) was −1.71 and the “Change from Baseline in ISS7 at Week 12, Mean” value (Age group (years) <65) was −7.17. The “Change from Baseline in ISS7 at Week 12, LS Mean” value (Age group (years) ≥44 (Median)) was −8.10, the “Change from Baseline in ISS7 at Week 12, LS Mean Diff vs. placebo” value (Age group (years) ≥44 (Median)) was −1.50 and the “Change from Baseline in ISS7 at Week 12, Mean” value (Age group (years) ≥44 (Median)) was −8.62. The “Change from Baseline in ISS7 at Week 12, Mean” value (Age group (years) ≥65) was −13.00, the “Change from Baseline in ISS7 at Week 12, LS Mean” value (Baseline BHRA BHRA+) was −8.42 and the “Change from Baseline in ISS7 at Week 12, LS Mean Diff vs. placebo” value (Baseline BHRA BHRA+) was −3.03. The “Change from Baseline in ISS7 at Week 12, Mean” value (Baseline BHRA BHRA+) was −9.57, the “Change from Baseline in ISS7 at Week 12, LS Mean” value (Baseline BHRA BHRA−) was −6.59 and the “Change from Baseline in ISS7 at Week 12, Mean” value (Baseline BHRA BHRA−) was −6.75. The “Change from Baseline in ISS7 at Week 12, LS Mean Diff vs. placebo” value (Baseline BMI (kg/m^2) ≥30) was −0.57, the “Change from Baseline in ISS7 at Week 12, LS Mean” value [1] was −6.93 and the “Change from Baseline in ISS7 at Week 12, LS Mean Diff vs. placebo” value [1] was −0.15. The “Change from Baseline in ISS7 at Week 12, LS Mean” value [2] was −7.37, the “Change from Baseline in ISS7 at Week 12, LS Mean Diff vs. placebo” value [2] was −0.86 and the “Change from Baseline in ISS7 at Week 12, Mean” value [2] was −5.92. The “Change from Baseline in ISS7 at Week 12, LS Mean” value [3] was −7.78, the “Change from Baseline in ISS7 at Week 12, LS Mean Diff vs. placebo” value [3] was −2.31 and the “Change from Baseline in ISS7 at Week 12, Mean” value [3] was −7.62. The “Change from Baseline in ISS7 at Week 12, LS Mean” value [4] was −7.91, the “Change from Baseline in ISS7 at Week 12, LS Mean Diff vs. placebo” value [4] was −3.92 and the “Change from Baseline in ISS7 at Week 12, LS Mean” value [5] was −7.62. The “Change from Baseline in ISS7 at Week 12, LS Mean Diff vs. placebo” value [5] was −3.53, the “Change from Baseline in ISS7 at Week 12, Mean” value [5] was −8.88 and the “Change from Baseline in ISS7 at Week 12, LS Mean” value [6] was −6.15. For the same compound, the “Change from Baseline in ISS7 at Week 12, LS Mean Diff vs. placebo” value [6] was −1.29, the “Change from Baseline in ISS7 at Week 12, LS Mean” value [7] was −8.44 and the “Change from Baseline in ISS7 at Week 12, LS Mean Diff vs. placebo” value [7] was −1.60. For the same compound, the “Change from Baseline in ISS7 at Week 12, Mean” value [7] was −9.03, the “Change from Baseline in ISS7 at Week 12, LS Mean” value [8] was −6.73 and the “Change from Baseline in ISS7 at Week 12, LS Mean Diff vs. placebo” value [8] was −3.25. For the same compound, the “Change from Baseline in ISS7 at Week 12, Mean” value [8] was −6.20, the “Change from Baseline in ISS7 at Week 12, LS Mean” value (Baseline ISS7 score <13) was −5.14 and the “Change from Baseline in ISS7 at Week 12, LS Mean Diff vs. placebo” value (Baseline ISS7 score <13) was −2.42. For the same compound, the “Change from Baseline in ISS7 at Week 12, Mean” value (Baseline ISS7 score <13) was −5.28, the “Change from Baseline in ISS7 at Week 12, LS Mean” value (Baseline ISS7 score ≥13) was −7.87 and the “Change from Baseline in ISS7 at Week 12, LS Mean Diff vs. placebo” value (Baseline ISS7 score ≥13) was −2.14. The “Change from Baseline in ISS7 at Week 12, Mean” value (Baseline ISS7 score ≥13) was −8.03, the “Change from Baseline in ISS7 at Week 12, LS Mean” value [9] was −8.29 and the “Change from Baseline in ISS7 at Week 12, LS Mean Diff vs. placebo” value [9] was −4.06. For the same compound, the “Change from Baseline in ISS7 at Week 12, Mean” value [9] was −8.52, the “Change from Baseline in ISS7 at Week 12, LS Mean” value [10] was −7.94 and the “Change from Baseline in ISS7 at Week 12, LS Mean Diff vs. placebo” value [10] was −3.43. The “Change from Baseline in ISS7 at Week 12, Mean” value [10] was −7.93, the “Change from Baseline in ISS7 at Week 12, LS Mean” value [11] was −6.91 and the “Change from Baseline in ISS7 at Week 12, LS Mean Diff vs. placebo” value [11] was −0.88. For the same compound, the “Change from Baseline in ISS7 at Week 12, Mean” value [11] was −6.57, the “Change from Baseline in ISS7 at Week 12, LS Mean” value [12] was −7.17 and the “Change from Baseline in ISS7 at Week 12, LS Mean Diff vs. placebo” value [12] was −0.62. For the same compound, the “Change from Baseline in ISS7 at Week 12, Mean” value [12] was −6.20, the “Change from Baseline in ISS7 at Week 12, LS Mean” value (Baseline UAS7 score <28) was −5.40 and the “Change from Baseline in ISS7 at Week 12, LS Mean Diff vs. placebo” value (Baseline UAS7 score <28) was −2.22. The “Change from Baseline in ISS7 at Week 12, Mean” value (Baseline UAS7 score <28) was −6.29, the “Change from Baseline in ISS7 at Week 12, LS Mean” value (Baseline UAS7 score ≥28) was −8.64 and the “Change from Baseline in ISS7 at Week 12, LS Mean Diff vs. placebo” value (Baseline UAS7 score ≥28) was −2.04. For the same compound, the “Change from Baseline in ISS7 at Week 12, Mean” value (Baseline UAS7 score ≥28) was −8.21, the “Change from Baseline in ISS7 at Week 12, LS Mean” value [13] was −6.89 and the “Change from Baseline in ISS7 at Week 12, LS Mean Diff vs. placebo” value [13] was 0.14. For the same compound, the “Change from Baseline in ISS7 at Week 12, Mean” value [13] was −8.05, the “Change from Baseline in ISS7 at Week 12, LS Mean” value (Duration of disease (years) <2) was −8.54 and the “Change from Baseline in ISS7 at Week 12, LS Mean Diff vs. placebo” value (Duration of disease (years) <2) was −4.89. For the same compound, the “Change from Baseline in ISS7 at Week 12, Mean” value (Duration of disease (years) <2) was −7.53, the “Change from Baseline in ISS7 at Week 12, LS Mean” value [14] was 5.36 and the “Change from Baseline in ISS7 at Week 12, LS Mean Diff vs. placebo” value [14] was 9.04. The “Change from Baseline in ISS7 at Week 12, Mean” value [14] was 1.67, the “Change from Baseline in ISS7 at Week 12, LS Mean” value (Ethnicity Hispanic) was −5.19 and the “Change from Baseline in ISS7 at Week 12, LS Mean Diff vs. placebo” value (Ethnicity Hispanic) was 1.82. The “Change from Baseline in ISS7 at Week 12, Mean” value (Ethnicity Hispanic) was −4.42, the “Change from Baseline in ISS7 at Week 12, LS Mean” value (Ethnicity Non-Hispanic) was −8.43 and the “Change from Baseline in ISS7 at Week 12, LS Mean Diff vs. placebo” value (Ethnicity Non-Hispanic) was −3.96. For the same compound, the “Change from Baseline in ISS7 at Week 12, Mean” value (Ethnicity Non-Hispanic) was −8.59, the “Change from Baseline in ISS7 at Week 12, Mean” value (Gender Female) was −6.99 and the “Change from Baseline in ISS7 at Week 12, Mean” value (Gender Male) was −8.17. For the same compound, the “Change from Baseline in ISS7 at Week 12, LS Mean” value (History of angioedema No) was −7.93, the “Change from Baseline in ISS7 at Week 12, LS Mean Diff vs. placebo” value (History of angioedema No) was −2.59 and the “Change from Baseline in ISS7 at Week 12, LS Mean” value (History of angioedema Yes) was −6.26. For the same compound, the “Change from Baseline in ISS7 at Week 12, LS Mean Diff vs. placebo” value (History of angioedema Yes) was −1.01, the “Change from Baseline in ISS7 at Week 12, Mean” value (History of angioedema Yes) was −4.04 and the “ISS7 at Week 12, Mean” value (ITT population) was 7.61. The “ISS7 at Week 12, Median” value (ITT population) was 7.00, the “ISS7 change from baseline at Week 12, Mean” value (ITT population) was −8.21 and the “ISS7 change from baseline at Week 12, Median” value (ITT population) was −8.00. For the same compound, the “ISS7 change from baseline at Week 12, LS Mean” value (ITT population, ANCOVA) was −8.06 points, the “ISS7 change from baseline at Week 12, LS Mean Diff vs. placebo” value (ITT population, ANCOVA) was −1.75 and the “LS mean change in ISS7 from baseline (see Table 29)” value (ITT population, following one week of treatment) was −5.23 points. The “Change from Baseline in ISS7 at Week 12, LS Mean” value (Race All the Others) was −6.99.
